The text below walks through data of US11582970B2, “2-aminoimidazole-phenyl derivatives useful for controlling microbial growth” (NORTH CAROLINA STATE UNIVERSITY, priority 2017, dated 2023).

Common to all, as to type: cell-based
Assay [1] concerns K. pneumoniae ATCC BAA-2146. Put plainly: MIC of carbapenems in presence and absence of 2-aminoimidazole compounds. Conditions: Klebsiella pneumoniae, no 2-AI compound (None). From the text: (§1) The minimal inhibitory concentration (MIC) values of imipenem (I); meropenem (M) and doripenem (D) in the presence and absence of 2-aminoimidazole compounds are provided in Table 1. The concentration of each compound used in μM in the MIC assay is shown in parentheses.

Assay [2] deals with K. pneumoniae ATCC BAA-1705. The description is as above. As to conditions: Klebsiella pneumoniae, no 2-AI compound (None).
Description: as §1

The next assay has as its system A. baumannii AB5075. The assay is described as above. Conditions: Acinetobacter baumannii, no 2-AI compound (None).
Description: as §1

The test system of assay [3] is A. baumannii ATCC BAA-1605. Described as above. As to conditions: Acinetobacter baumannii, no 2-AI compound (None).
Description: as §1

For assay [4], the system named is K. pneumoniae (Kp) AR# 68. Nature of the assay: MIC of meropenem in combination with compound, CDC carbapenem resistant strain. Conditions: Klebsiella pneumoniae, no compound (None), read-out: Minimum Inhibitory Concentration of Meropenem. As to the method:
(§2) EXAMPLE 2: Six compounds were assessed for their activity in combination with meropenem against carbapenem resistant strains of A. baumannii (Ab), K. pneumoniae (Kp), and E. coli acquired from the Center for Disease Control (CDC). AR #—assigned AR-BANK number from the CDC.

Another assay deals with A. baumannii (Ab) AR# 88. The assay is described as above. As to conditions: Acinetobacter baumannii, no compound (None), read-out: Minimum Inhibitory Concentration of Meropenem. As to the method: as §2
Another assay concerns A. baumannii (Ab) AR# 36. Described as above. Conditions: Acinetobacter baumannii, no compound (None), read-out: Minimum Inhibitory Concentration of Meropenem. Here is the method: as §2
Another assay has as its system A. baumannii (Ab) AR# 33. The assay is described as above. As to conditions: Acinetobacter baumannii, no compound (None), read-out: Minimum Inhibitory Concentration of Meropenem. Here is the method: as §2
Another assay concerns A. baumannii (Ab) AR# 56. Described as above. As to conditions: Acinetobacter baumannii, no compound (None), read-out: Minimum Inhibitory Concentration of Meropenem. Here is the method:
as §2

The test system of another assay is E. coli AR# 48. The assay is described as above. As to conditions: Escherichia coli, no compound (None), read-out: Minimum Inhibitory Concentration of Meropenem. As to the method: as §2
In a further assay the test system is A. baumannii (Ab) AR# 45. The description is as above. As to conditions: Acinetobacter baumannii, no compound (None), read-out: Minimum Inhibitory Concentration of Meropenem. As to the method:
as §2

The next assay has as its system A. baumannii (Ab) AR# 52. The description is as above. Conditions: Acinetobacter baumannii, no compound (None), read-out: Minimum Inhibitory Concentration of Meropenem. Here is the method: as §2
A further assay concerns E. coli AR# 55. Described as above. As to conditions: Escherichia coli, no compound (None), read-out: Minimum Inhibitory Concentration of Meropenem. As to the method:
as §2

Assay [5] relates to K. pneumoniae (Kp) AR# 98. The assay is described as above. As to conditions: Klebsiella pneumoniae, no compound (None), read-out: Minimum Inhibitory Concentration of Meropenem. As to the method:
as §2

For the next assay, the system named is A. baumannii (Ab) AR# 35. The assay is described as above. As to conditions: Acinetobacter baumannii, no compound (None), read-out: Minimum Inhibitory Concentration of Meropenem. As to the method: as §2
In the next assay the test system is A. baumannii (Ab) AR# 37. The description is as above. Conditions: Acinetobacter baumannii, no compound (None), read-out: Minimum Inhibitory Concentration of Meropenem. Here is the method:
as §2

Another assay deals with A. baumannii (Ab) AR# 70. Described as above. As to conditions: Acinetobacter baumannii, no compound (None), read-out: Minimum Inhibitory Concentration of Meropenem. As to the method: as §2
In assay [6] the test system is K. pneumoniae (Kp) AR# 40. The description is as above. As to conditions: Klebsiella pneumoniae, no compound (None), read-out: Minimum Inhibitory Concentration of Meropenem. As to the method: as §2
For assay [7], the system named is K. pneumoniae (Kp) AR# 41. The description is as above. As to conditions: Klebsiella pneumoniae, no compound (None), read-out: Minimum Inhibitory Concentration of Meropenem. As to the method: as §2
In another assay the test system is A. baumannii (Ab) AR# 63. The description is as above. Conditions: Acinetobacter baumannii, no compound (None), read-out: Minimum Inhibitory Concentration of Meropenem. Here is the method:
as §2

In the next assay the test system is A. baumannii (Ab) AR# 83. The description is as above. Conditions: Acinetobacter baumannii, no compound (None), read-out: Minimum Inhibitory Concentration of Meropenem. Here is the method:
as §2

The structures appear in SMILES notation. Where two headings read alike, the source gives them in different places.

As to `C[C@@H](O)[C@H]1C(=O)N2C(C(=O)O)=C(S[C@@H]3CN[C@H](CNS(N)(=O)=O)C3)[C@H](C)[C@H]12` [D, doripenem], the MIC worked out at 256 mg/L in [1] (read-out: MIC of doripenem (D)), 64 mg/L in assay [2] (read-out: MIC of doripenem (D)), 32 mg/L in the assay with A. baumannii AB5075 (read-out: MIC of doripenem (D)) and 32 mg/L in assay [3] (read-out: MIC of doripenem (D)).
For `C[C@@H](O)[C@H]1C(=O)N2C(C(=O)O)=C(S[C@@H]3CN[C@H](C(=O)N(C)C)C3)[C@H](C)[C@H]12` [M, meropenem, reference compound], the MIC in assay [4] is 512 mg/L; in the assay with A. baumannii (Ab) AR# 88, 512 mg/L; with A. baumannii (Ab) AR# 36, 128 mg/L; in the assay on A. baumannii (Ab) AR# 33, 128 mg/L; in the assay with A. baumannii (Ab) AR# 56, 32 mg/L; in the assay with E. coli AR# 48, 256 mg/L. For the same compound, the MIC turned out to be 16 mg/L with A. baumannii (Ab) AR# 45; 8 mg/L in the assay on A. baumannii (Ab) AR# 52; 256 mg/L in the assay on E. coli AR# 55; 128 mg/L in [5]; 128 mg/L with A. baumannii (Ab) AR# 35; 256 mg/L in the assay on A. baumannii (Ab) AR# 37. For the same compound, the MIC in the assay with A. baumannii (Ab) AR# 70 is 8 mg/L; in assay [6], 1020 mg/L; in assay [7] it was 64 mg/L; in the assay on A. baumannii (Ab) AR# 63, 128 mg/L; with A. baumannii (Ab) AR# 83, 256 mg/L; in [1] (read-out: MIC of meropenem) it was 256 mg/L. Besides, the MIC in [2] (read-out: MIC of meropenem) worked out at 64 mg/L; with A. baumannii AB5075 (read-out: MIC of meropenem) it was 32 mg/L; in [3] (read-out: MIC of meropenem), 32 mg/L.
For the compound `C[C@@H](O)[C@H]1C(=O)N2C(C(=O)O)=C(SCCN=CN)C[C@H]12` [I, imipenem], the MIC amounted to 128 mg/L in assay [1] (read-out: MIC of imipenem (I)), 64 mg/L in assay [2] (read-out: MIC of imipenem (I)), 32 mg/L in the assay with A. baumannii AB5075 (read-out: MIC of imipenem (I)) and 32 mg/L in assay [3] (read-out: MIC of imipenem (I)).
